This note sets out measurements from patent US11919910B2, “Spiropyrrolidine derived antiviral agents” (ENANTA PHARMACEUTICALS, INC., priority 2021, dated 2024).

One series has as its target SARS-CoV-2 3CL-protease (Severe acute respiratory syndrome coronavirus 2, UniProt P0DTD1). In words: SARS-CoV-2 3C-like (3CL) protease fluorescence assay (FRET). The series is classed as biochemical. Particulars: recombinant SARS-CoV-2 3CL-protease 10 nM, 30 min preincubation at RT, substrate 40 μM, run in duplicate.
`CC(C)C[C@@H](C(=O)N1C[C@]2(C[C@H]1C(=O)c1nc3ccccc3s1)C(=O)Nc1ccccc12)N(C)C(=O)OCc1ccccc1` [Example 5]: the IC50 is greater than 10 µM.
For `CC(C)C[C@@H](C(=O)N1C[C@]2(C[C@H]1C(=O)c1nc3ccccc3s1)C(=O)Nc1ccccc12)N(C)C(=O)c1cc2c(F)cc(F)c(F)c2[nH]1` [Example 3], the IC50 is greater than 10 µM.
Consider `CC(C)C[C@@H](C(=O)N1C[C@]2(C[C@@H]1C(=O)c1nc3ccccc3s1)C(=O)Nc1ccccc12)N(C)C(=O)c1cc2c(F)cc(F)cc2[nH]1` [Example 2], for which the IC50 was greater than 10 µM.
For the molecule `CC(C)C[C@@H](C(=O)N1C[C@]2(C[C@H]1C(=O)c1nc3ccccc3s1)C(=O)Nc1ccccc12)N(C)C(=O)c1cc2c(F)cc(F)cc2[nH]1` [Example 1], the IC50 is less than 1 µM.
With `CC(C)C[C@@H](C(=O)N1C[C@]2(C[C@@H]1C(=O)c1nc3ccccc3s1)C(=O)Nc1ccccc12)N(C)C(=O)c1cc2c(F)cc(F)c(F)c2[nH]1` [Example 4], the IC50 is greater than 10 µM.
Consider `CC(C)C[C@@H](C(=O)N1C[C@]2(C[C@H]1C(=O)c1nc3ccccc3s1)C(=O)Nc1ccccc12)N(C)C(=O)[C@H](C)NC(=O)OCc1ccccc1` [Example 6], for which the IC50 was less than 1 µM.

Tested on in the next series: not given
Assay: not given
It is filed as physicochemical.
Conditions: not given
How it is done:
Step 7: Compound (3-6) (80 mg, 0.167 mmol) and 4,6,7-trifluoro-1H-indole-2-carboxylic acid (36.0 mg, 0.167 mmol) were dissolved in CH2Cl2 (1.393 ml) and DMF (0.279 ml) at 0° C. 4-methylmorpholine (55.1 μl, 0.501 mmol) and HATU (66.7 mg, 0.176 mmol) were added. The mixture was stirred at 0° C. for 3 h, diluted with DCM, and washed with 5% NaHCO3. The organic layer was washed with brine, dried over Na2SO4, and concentrated in vacuo. The crude was purified by chromatography on silica gel (ISCO 4 g) using ethyl acetate/cyclohexane (0-60%) to give a product as a light yellow oil (3-7) (60 mg, 53%). LC-MS, ES−: 674.2 [M-1]. Step 8: To a solution of (3-7) (60 mg, 0.089 mmol) in DCM (2 ml) at 0° C. was added Dess-Martin periodinane (56.5 mg, 0.133 mmol). The mixture was stirred at 0° C. for 3 h, quenched with 10% Na2S2O3, stirred for another 15 min, and extracted with DCM. The combined organic layers were washed with 10% Na2S2O3, Sat. NaHCO3, brine, dried over Na2SO4, and concentrated.
Take `CC(C)C[C@@H](C(=O)N1C[C@]2(C[C@H]1C(=O)c1nc3ccccc3s1)C(=O)Nc1ccccc12)N(C)C(=O)c1cc2c(F)cc(F)c(F)c2[nH]1` [Example 3]: the stability in solution result is on record as “not stable in solution”.
